# Laboratory results from US11235023B2, “Beta-hairpin peptidomimetic with elastase inhibitory activity and aerosol dosage forms thereof” (POLYPHOR AG, priority 2016, dated 2022).
# Like-named read-outs stand apart in the source and are kept apart here. Non-standard residues stand in square brackets, D forms with d. Residues, ends and D or L forms follow the SMILES beside them. Gly(octyl) = CCCCCCCC[C@H](N)C(=O)O
# Legend:
# [1] = molecular target: T1, human neutrophil elastase (Homo sapiens, UniProt P08246); test: Phase-Ib study in CF patients, active neutrophil elastase in sputum by FRET assay; assay type: in vivo
# T1 construct: from tissue; host or cells: spontaneous sputum of patients with cystic fibrosis (PBS-soluble fraction)
# T1 sequence (P08246 30-267): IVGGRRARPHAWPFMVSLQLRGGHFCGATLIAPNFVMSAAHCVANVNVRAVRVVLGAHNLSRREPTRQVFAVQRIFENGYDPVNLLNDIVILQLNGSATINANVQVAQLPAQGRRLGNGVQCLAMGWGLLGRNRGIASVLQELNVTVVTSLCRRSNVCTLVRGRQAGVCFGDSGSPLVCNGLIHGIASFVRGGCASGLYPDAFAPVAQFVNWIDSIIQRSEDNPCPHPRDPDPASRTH
# Description: The pharmacodynamic effect of ascending single doses of active compound was investigated by evaluation of neutrophil elastase (NE) activity in sputum using FRET (fluorescence resonance energy transfer) assay after PBS aliquotation and freezing.
# On the day of screening, if possible, for baseline assessment of NE activity, on Day −1 as soon as possible after the subject's arrival at the study site for baseline assessment of NE activity, on Day 1 in the period of time between 1 h and 3 h after start of inhalation, and in the morning of Day 2, at approx. 24 h after start of inhalation.
# Spontaneous sputum samples were collected in polystyrene Petri dishes and put on ice immediately. All processing steps had to be performed with cold reagents and on ice whenever possible. Plugs were separated from saliva, but the latter was not discarded. If a sputum sample was taken for both PK and NE activity in sputum analysis, the plug was split in 2 approximately equal parts. One part was processed for evaluation of NE activity in sputum the other one for PK analysis, as described above.
# For evaluation of NE activity in sputum, at first, the weight of the sputum sample was determined and 8 mL cold phosphate-buffered saline (PBS) per gram purified sputum was added. The sample was vortexed for 30 s at room temperature (15-24° C.). Then, the soluble fraction was separated from the sputum pellet by centrifugation (10 min at 1000×g and 4° C.). The supernatant was transferred to a fresh tube.
# Remaining insoluble particles were separated by a second centrifugation step at 3500×g for 15 min at 4° C. If the supernatant was not aliquoted immediately, the PBS/sputum supernatant was transferred to a fresh tube.
# 10 aliquots of 50 μL PBS/sputum were transferred into transfer tubes for evaluation. Moreover, 4 aliquots of 50 μL PBS/sputum were transferred into transfer tubes as backup. In case there was a leftover, the remaining volume was immediately transferred into a transfer tube for evaluation. Any leftover exceeding 2.0 mL was discarded.
# The NE activity in sputum was evaluated by using a FRET elastase assay adapted from an assay described in Nature Protocols, 2008, 3, 991 (B. Korkmaz, S. Attucci, M. A. Juliano et al.) and validated by MLM Medical Labs GmbH, Mönchengladbach, Germany.
# The assay is based on the reaction of human neutrophil elastase with the substrate 2Abz-Ala-Pro-Glu-Glu-Ile-Met-Arg-Arg-Gln-Tyr(3NO2)—OH (GeneCust Europe S. A., Ellange, Luxembourg, #P160301-SY452824). By adding the substrate solution the enzyme reaction is started and the elastase present in the samples reacts with added substrate. The product of the reaction is detected through fluorescence measurement and the initial reaction velocity is determined. The concentration of active elastase in the unknown samples is back-calculated using the calibration curve calculated from the standards.
# An elastase reference stock solution (human neutrophil elastase [ELA2], Höltzel Diagnostika, Köln, Germany, #PN31255) with known enzymatic activity was prepared. The exact active elastase enzyme concentration was determined by titration against an alpha 1-antitrypsin solution (Athens Research and Technology, Athens, USA, #16-16-011609), with a defined concentration. The active elastase reference stock solution was adjusted by addition of PBS to a concentration of 3000 nM and aliquots were stored at −80° C.
# The FRET assay was performed in 96 well white microtiter plates in total volume of 100 μL per well. PBS sputum dilutions of 1:5, 1:50 and 1:100 in elastase reaction buffer (50 mM HEPES, pH 7.4, 750 mM NaCl, 0.05% [v/v] NP-40) were prepared, 5 uL loaded per well and 90 uL elastase reaction buffer were added. A 5 mM substrate stock solution of 2Abz-Ala-Pro-Glu-Glu-Ile-Met-Arg-Arg-Gln-Tyr(3NO2)—OH in 30% (v/v) N,N-dimethylformamide/water was prepared and further diluted to 400 nM by addition of elastase reaction buffer. […]
# [2] = Phase-Ib study in CF patients, plasma pharmacokinetics (LC-MS/MS); assay type: in vivo; settings: human, inhaled or intranasal; for Tmax: inhalation, CF patients; for level at 24 h: read-out: mean plasma concentration 24 hours after inhalation; for half-life: read-out: mean terminal half-life (plasma) (converted)
# Description: AUC0-∞, AUC0-∞/D, Cmax, Cmax/D of active compound in plasma as primary variables and tmax, t1/2, λ2, […] of active compound in plasma as secondary variables.
# Blood samples for the determination of the plasma concentrations of active compound were taken at the following points in time:
# On Day 1 at pre-dose, 10 min, and 0.5 h, 1 h, 2 h, 3 h, 4 h, 6 h, 8 h, 12 h, 15 h, and on Day 2 at 24 h post dose (after start of inhalation).
# The samples were collected in closed K3-EDTA plasma sampling tubes (Monovette® Sarstedt, Germany). The accepted time-interval for sample handling procedures for each individual study sample, i.e., the time between sample collection and sample centrifugation had not to exceed 60 min, and the time between the end of centrifugation and sample freezing had also not to exceed 60 min.
# The samples were centrifuged at approximately 4° C. (±2° C.) at 2200×g for 15 min.
# The resulting plasma supernatant was then transferred into 2 polypropylene tubes (1st aliquot of at least 1 mL and backup) and frozen in upright position below […]
# For the analysis of active compound in plasma, a validated and highly sensitive liquid chromatography tandem mass spectrometry (LC-MS/MS) method was used.
# The pharmacokinetic parameters mentioned above were calculated based on actual blood and sputum sampling times using non-compartmental procedures.
smiles,measurement,setting,value
"CCCCCCCC[C@@H]1NC(=O)[C@@H]2CCCN2C(=O)[C@H]2CCCN2C(=O)[C@H](Cc2ccc(O)cc2)NC(=O)[C@H](CCCCN)NC(=O)[C@H](CCC(N)=O)NC(=O)[C@@H]2CCCN2C(=O)[C@@H]2CCCN2C(=O)[C@H]([C@@H](C)CC)NC(=O)[C@H](CO)NC(=O)[C@H](C)NC(=O)[C@H]([C@@H](C)O)NC(=O)[C@H](CCC(=O)O)NC1=O [active compound, cyclo(-OctG-Glu-Thr-Ala-Ser-Ile-Pro-Pro-Gln-Lys-Tyr-^DPro-Pro-)] (cyclo([Gly(octyl)]ETASIPPQKY[dP]P))",Mean concentration of active NE in sputum after single-dose inhalation,"[1]; CF patients, 80-320 mg, extent independent of dose",strongly decreased
same,Mean concentration of active NE in sputum at 24 h after inhalation,"[1]; CF patients, high data variability",returned to baseline levels
same,Mean (SD) concentration of active NE in sputum,"[1]; dose level 1 (80 mg), 1-3 h after inhalation, predose 18823.6 (19758.72)",612.5 (1218.62) ng/mL
same,Mean (SD) concentration of active NE in sputum,"[1]; dose level 1 (80 mg), 24 h after inhalation",1467.7 (2154.43) ng/mL
same,Mean (SD) concentration of active NE in sputum,"[1]; dose level 2 (160 mg), 1-3 h after inhalation, predose 9548.7 (6222.55)",115.0 (0.00) ng/mL
same,Mean (SD) concentration of active NE in sputum,"[1]; dose level 2 (160 mg), 24 h after inhalation",16849.4 (23518.56) ng/mL
same,Mean (SD) concentration of active NE in sputum,"[1]; dose level 3 (320 mg), 1-3 h after inhalation, predose 10480.7 (10528.00)",115.0 (0.00) ng/mL
same,Mean (SD) concentration of active NE in sputum,"[1]; dose level 3 (320 mg), 24 h after inhalation",7712.5 (11394.04) ng/mL
same,Inhibition of active elastase in sputum,"[1]; over several hours after single dose, all dose groups (FIG. 5)",> 90%
same,Tmax,[2]; dose group 1 (80 mg),1.3 h
same,level at 24 h,[2]; dose group 1 (80 mg),2.8 ng/mL
same,half-life,[2]; dose group 1 (80 mg),4.1 h
same,Tmax,[2]; dose group 2 (160 mg),1.5 h
same,level at 24 h,[2]; dose group 2 (160 mg),4.4 ng/mL
same,half-life,[2]; dose group 2 (160 mg),3.5 h
same,Tmax,[2]; dose group 3 (320 mg),2.3 h
same,level at 24 h,[2]; dose group 3 (320 mg),15.2 ng/mL
same,half-life,[2]; dose group 3 (320 mg),3.8 h
